Source: patent publication US10494343B2, “Organic compound, near-infrared fluorescent constant medium containing same, and method for nano-granulating constant medium” (COLLEGE OF MEDICINE POCHON CHA UNIV. INDUSTRY—ACADEMIC …, priority 2015, dated 2019)

Legend:
[1] = Absorption/emission wavelength of the compounds (Table 1); format: physicochemical; conditions: DMSO
[2] = Test Example 1: optical properties of contrast medium according to Preparation Example 2; format: physicochemical; set-up: unit not given here; conditions: conventional contrast medium, solvent not stated
Procedure: Contrast media were prepared by dissolving compound H per se according to Example 8 in various organic solvents without manufacturing core-shell nanoparticles.
Test Example 1—Evaluation on Optical Properties of Contrast Medium According to Preparation Example 2
The absorption intensity, absorption wavelength, emission wavelength, and quantum yield (ϕf) of the contrast media prepared in Preparation Example 2 are shown in the Table 2.

| Compound | Absorption wavelength [1] | Emission wavelength [1] | quantum efficiency (χf) [2] |
| --- | --- | --- | --- |
| CCN1/C(=C/C=C2\CC(c3ccc(C(=O)OC)cc3)CC(/C=C/C3=[N+](CC)c4ccc5cc(OC)ccc5c4C3(C)C)=C2Cl)C(C)(C)c2c1ccc1cc(OC)ccc21.[I-] (stereo not shown) [C, 2-((E)-2-((E)-2-chloro-3-((E)-2-(3-ethyl-7-methoxy-1,1-dimethyl-1H-benzo[e]indol-2(3H)-ylidene)ethylidene)-5-(4-(methoxycarbonyl)phenyl)cyclohex-1-enyl)vinyl)-3-ethyl-7-methoxy-1,1-dimethyl-1H-benzo[e]indolium iodide] | 843 nm | 876 nm | – |
| CCN1/C(=C/C=C2\CC(c3ccc(C(=O)OC)cc3)CC(/C=C/C3=[N+](CC)c4ccc5cc(S(=O)(=O)O)ccc5c4C3(C)C)=C2Cl)C(C)(C)c2c1ccc1cc(S(=O)(=O)O)ccc21 (stereo not shown) [Compound A, 2-((E)-2-((E)-2-chloro-3-((E)-2-(3-ethyl-1,1-dimethyl-7-sulfo-1H-benzo[e]indo-1-2(3H)-ylidene)ethylidene)-5-(4-(methoxycarbonyl)phenyl)cyclohex-1-enyl)vinyl)-3-ethyl-1,1-dimethyl-1H-benzo[e]indolium-7-sulfonate] | 833 nm | 865 nm | – |
| CCN1/C(=C/C=C2\CC(c3ccc(C(=O)OC)cc3)CC(/C=C/C3=[N+](CC)c4ccc5cc(Br)ccc5c4C3(C)C)=C2Cl)C(C)(C)c2c1ccc1cc(Br)ccc21.[I-] (stereo not shown) [Compound B, 7-bromo-2-((E)-2-((E)-3-((E)-2-(7-bromo-3-ethyl-1,1-dimethyl-1H-benzo[e]indol-2(3H)-ylidene)ethylidene)-2-chloro-5-(4-(methoxycarbonyl)phenyl)cyclohex-1-enyl)vinyl)-3-ethyl-1,1-dimethyl-1H-benzo[e]indolium iodide] | 831 nm | 863 nm | – |
| CCN1/C(=C/C=C2\CC(C(C)(C)C(=O)OC)CC(/C=C/C3=[N+](CC)c4ccc5cc(S(=O)(=O)O)ccc5c4C3(C)C)=C2Cl)C(C)(C)c2c1ccc1cc(S(=O)(=O)O)ccc21 (stereo not shown) [Compound D, 2-((E)-2-((E)-2-chloro-3-((E)-2-(3-ethyl-1,1-dimethyl-7-sulfo-1H-benzo[e]indol-2(3H)-ylidene)ethylidene)-5-(1-methoxy-2-methyl-1-oxopropan-2-yl)cyclohex-1-enyl)vinyl)-3-ethyl-1,1-dimethyl-1H-benzo[e]indolium-7-sulfonate] | 833 nm | 861 nm | – |
| CCN1/C(=C/C=C2\CC(C(C)(C)C(=O)OC)CC(/C=C/C3=[N+](CC)c4ccc5cc(Br)ccc5c4C3(C)C)=C2Cl)C(C)(C)c2c1ccc1cc(Br)ccc21.[I-] (stereo not shown) [Compound E, 7-bromo-2-((E)-2-((E)-3-((E)-2-(7-bromo-3-ethyl-1,1-dimethyl-1H-benzo[e]indol-2(3H)-ylidene)ethylidene)-2-chloro-5-(1-methoxy-2-methyl-1-oxopropan-2-yl)cyclohex-1-enyl)vinyl)-3-ethyl-1,1-dimethyl-1H-benzo[e]indolium iodide] | 833 nm | 865 nm | – |
| CCN1/C(=C/C=C2\CC(C(C)(C)C(=O)OC)CC(/C=C/C3=[N+](CC)c4ccc5cc(OC)ccc5c4C3(C)C)=C2Cl)C(C)(C)c2c1ccc1cc(OC)ccc21.[I-] (stereo not shown) [Compound F, 2-((E)-2-((E)-2-chloro-3-((E)-2-(3-ethyl-7-methoxy-1,1-dimethyl-1H-benzo[e]indol-2(3H)-ylidene)ethylidene)-5-(1-methoxy-2-methyl-1-oxopropan-2-yl)cyclohex-1-enyl)vinyl)-3-ethyl-7-methoxy-1,1-dimethyl-1H-benzo[e]indolium iodide] | 843 nm | 881 nm | – |

Further lines, results first:

| Absorption wavelength [1] | Emission wavelength [1] | quantum efficiency (χf) [2] | Compound |
| --- | --- | --- | --- |
| 856 nm | 905 nm | – | 3-ethyl-2-((E)-2-((E)-3-((E)-2-(3-ethyl-7-methoxy-1,1-dimethyl-1H-benzo[e]indol-2(3H)-ylidene)ethylidene)-2-(4-(2-isothiocyantoethylcarbamoyl)phenylthio)-5-(1-methoxy-2-methyl-1-oxopropan-2-yl)cyclohex-1-enyl) vinyl)-7-methoxy-1,1-dimethyl-1H-benzo[e]indolium iodide [Compound J] |
| 849 nm | 883 nm | – | CCN1/C(=C/C=C2\CC(C(C)(C)C(=O)OC)CC(/C=C/C3=[N+](CC)c4ccc5cc(S(=O)(=O)[O-])ccc5c4C3(C)C)=C2Sc2ccc(C(=O)O)cc2)C(C)(C)c2c1ccc1cc(S(=O)(=O)O)ccc21 (stereo not shown) [Compound G, 2-((E)-2-((E)-2-(4-carboxyphenylthio)-3-((E)-2-(3-ethyl-1,1-dimethyl-7-sulfo-1H-benzo[e]indol-2(3H)-ylidene)ethylidene)-5-(1-methoxy-2-methyl-1-oxopropan-2-yl)cyclohex-1-enyl)vinyl)-3-ethyl-1,1-dimethyl-1H-benzo[e]indolium-7-sulfonate] |
| 857 nm | 900 nm | – | CCN1/C(=C/C=C2\CC(C(C)(C)C(=O)OC)CC(/C=C/C3=[N+](CC)c4ccc5cc(OC)ccc5c4C3(C)C)=C2Sc2ccc(C(=O)[O-])cc2)C(C)(C)c2c1ccc1cc(OC)ccc21 (stereo not shown) [Compound H, 4-((E)-6-((E)-2-(3-ethyl-7-methoxy-1,1-dimethyl-1H-benzo[e]indol-2(3H)-ylidene)ethylidene)-2-((E)-2-(3-ethyl-7-methoxy-1,1-dimethyl-1H-benzo[e]indolium-2-yl)vinyl)-4-(1-methoxy-2-methyl-1-oxopropan-2-yl)cyclohex-1-enylthio)benzoate] |
| 857 nm | 889 nm | – | CCN1/C(=C/C=C2\CC(C(C)(C)C(=O)OC)CC(/C=C/C3=[N+](CC)c4ccc5cc(OC)ccc5c4C3(C)C)=C2Sc2ccc(C(=O)NCCN)cc2)C(C)(C)c2c1ccc1cc(OC)ccc21.[I-] (stereo not shown) [Compound I, 2-((E)-2-((E)-2-(4-(2-aminoethylcarbamoyl)phenylthio)-3-((E)-2-(3-ethyl-7-methoxy-1,1-dimethyl-1H-benzo[e]indol-2(3H)-ylidene)ethylidene)-5-(1-methoxy-2-methyl-1-oxopropan-2-yl)cyclohex-1-enyl)vinyl)-3-ethyl-7-methoxy-1,1-dimethyl-1H-benzo[e]indolium iodide] |
| 857 nm | 901 nm | – | CCN1/C(=C/C=C2\CCCC(/C=C/C3=[N+](CC)c4ccc5cc(OC)ccc5c4C3(C)C)=C2Sc2ccc(C(=O)NCCN)cc2)C(C)(C)c2c1ccc1cc(OC)ccc21.[I-] [Compound K, 2-((E)-2-((E)-2-(4-(2-aminoethylcarbamoyl)phenylthio)-3-((E)-2-(3-ethyl-7-methoxy-1,1-dimethyl-1H-benzo[e]indol-2(3H)-ylidene)ethylidene)cyclohex-1-enyl)vinyl)-3-ethyl-7-methoxy-1,1-dimethyl-1H-benzo[e]indolium iodide] |
| 857 nm | 896 nm | – | CCN1/C(=C/C=C2\CC(C(C)(C)C)CC(/C=C/C3=[N+](CC)c4ccc5cc(OC)ccc5c4C3(C)C)=C2Sc2ccc(C(=O)NCCN)cc2)C(C)(C)c2c1ccc1cc(OC)ccc21.[I-] (stereo not shown) [Compound L, 2-((E)-2-((E)-2-(4-(2-aminoethylcarbamoyl)phenylthio)-5-tert-butyl-3-((E)-2-(3-ethyl-7-methoxy-1,1-dimethyl-1H-benzo[e]indol-2(3H)-ylidene)ethylidene)cyclohex-1-enyl)vinyl)-3-ethyl-7-methoxy-1,1-dimethyl-1H-benzo[e]indolium iodide] |
| – | – | 2.58 | CC1(C)C(/C=C/C=C/C=C/C=C2\N(CCCCS(=O)(=O)O)c3ccc4ccccc4c3C2(C)C)=[N+](CCCCS(=O)(=O)[O-])c2ccc3ccccc3c21 [indocyanine green] |
